Measured values taken from US9920063B2, “Melampomagnolide B derivatives” (Board of Trustees of the University of Arkansas, priority 2013, dated 2018).
Like-named read-outs stand apart in the source and are kept apart here.

Experiments:
SW-620 = test: NCI human tumor cell line panel, Colon Cancer

SMILES: C=C1C(=O)O[C@H]2[C@H]1CC/C(COC(=O)c1cc3ccccc3[nH]1)=C\CC[C@@]1(C)O[C@@H]21 [BS-1-28]
- CC50 (CCRF-CEM): > 100 µM
- Percent Growth (CCRF-CEM; CCRF-CEM, Log10 Concentration −4.0): −37%
- Percent Growth (CCRF-CEM; CCRF-CEM, Log10 Concentration −5.0): −15%
- Percent Growth (CCRF-CEM; CCRF-CEM, Log10 Concentration −6.0): 3%
- Percent Growth (CCRF-CEM; CCRF-CEM, Log10 Concentration −7.0): 90%
- Percent Growth (CCRF-CEM; CCRF-CEM, Log10 Concentration −8.0): 99%
- GI50 (CCRF-CEM; CCRF-CEM, NCI five dose): 0.286 µM
- TGI (CCRF-CEM; CCRF-CEM, NCI five dose): 1.45E−6
- GI50 (CCRF-CEM; leukemia cell line CCRF-CEM): 0.288 µM
- CC50 (SNB-75): 4.72 µM
- Percent Growth (SNB-75; SNB-75, Log10 Concentration −4.0): −58%
- Percent Growth (SNB-75; SNB-75, Log10 Concentration −5.0): −98%
- Percent Growth (SNB-75; SNB-75, Log10 Concentration −6.0): 50%
- Percent Growth (SNB-75; SNB-75, Log10 Concentration −7.0): 77%
- Percent Growth (SNB-75; SNB-75, Log10 Concentration −8.0): 72%
- GI50 (SNB-75; SNB-75, NCI five dose): 1.01 µM
- TGI (SNB-75; SNB-75, NCI five dose): 2.19E−6
- Percent Growth (SW-620; Log10 Concentration −4.0): −75%
- Percent Growth (SW-620; Log10 Concentration −5.0): −67%
- Percent Growth (SW-620; Log10 Concentration −6.0): −19%
- Percent Growth (SW-620; Log10 Concentration −7.0): 98%
- Percent Growth (SW-620; Log10 Concentration −8.0): 93%
- GI50 (SW-620; NCI five dose): 0.256 µM
- TGI (SW-620; NCI five dose): 8.88E−7
- CC50 (SW-620; read-out: LC50, NCI five dose): 4.47 µM
- CC50 (SK-OV-3): 11.7 µM
- Percent Growth (SK-OV-3; SK-OV-3, Log10 Concentration −4.0): −86%
- Percent Growth (SK-OV-3; SK-OV-3, Log10 Concentration −5.0): −47%
- Percent Growth (SK-OV-3; SK-OV-3, Log10 Concentration −6.0): 77%
- Percent Growth (SK-OV-3; SK-OV-3, Log10 Concentration −7.0): 90%
- Percent Growth (SK-OV-3; SK-OV-3, Log10 Concentration −8.0): 82%
- GI50 (SK-OV-3; SK-OV-3, NCI five dose): 1.65 µM
- TGI (SK-OV-3; SK-OV-3, NCI five dose): 4.47E−6
- CC50 (RXF 393): 6.23 µM
- Percent Growth (RXF 393; RXF 393, Log10 Concentration −4.0): −65%
- Percent Growth (RXF 393; RXF 393, Log10 Concentration −5.0): −77%
- Percent Growth (RXF 393; RXF 393, Log10 Concentration −6.0): 54%
- Percent Growth (RXF 393; RXF 393, Log10 Concentration −7.0): 85%
- Percent Growth (RXF 393; RXF 393, Log10 Concentration −8.0): 73%
- GI50 (RXF 393; RXF 393, NCI five dose): 1.07 µM
- TGI (RXF 393; RXF 393, NCI five dose): 2.58E−6
- CC50 (KM12): 15.6 µM
- Percent Growth (KM12; KM12, Log10 Concentration −4.0): −82%
- Percent Growth (KM12; KM12, Log10 Concentration −5.0): −42%
- Percent Growth (KM12; KM12, Log10 Concentration −6.0): 92%
- Percent Growth (KM12; KM12, Log10 Concentration −7.0): 96%
- Percent Growth (KM12; KM12, Log10 Concentration −8.0): 93%
- GI50 (KM12; KM12, NCI five dose): 2.05 µM
- TGI (KM12; KM12, NCI five dose): 4.84E−6
- CC50 (T-47D): > 100 µM
- GI50 (T-47D): < 0.01 µM
- Percent Growth (T-47D; T-47D, Log10 Concentration −4.0): −33%
- Percent Growth (T-47D; T-47D, Log10 Concentration −5.0): −43%
- Percent Growth (T-47D; T-47D, Log10 Concentration −6.0): 35%
- Percent Growth (T-47D; T-47D, Log10 Concentration −7.0): 40%
- Percent Growth (T-47D; T-47D, Log10 Concentration −8.0): −2%
- GI50 (T-47D; T-47D, NCI five dose): < 0.01 µM
- CC50 (NCI/ADR-RES): > 100 µM
- Percent Growth (NCI/ADR-RES; NCl/ADR-RES, Log10 Concentration −4.0): −43%
- Percent Growth (NCI/ADR-RES; NCl/ADR-RES, Log10 Concentration −5.0): −2%
- Percent Growth (NCI/ADR-RES; NCl/ADR-RES, Log10 Concentration −6.0): 77%
- Percent Growth (NCI/ADR-RES; NCl/ADR-RES, Log10 Concentration −7.0): 100%
- Percent Growth (NCI/ADR-RES; NCl/ADR-RES, Log10 Concentration −8.0): 99%
- GI50 (NCI/ADR-RES; NCl/ADR-RES, NCI five dose): 2.2 µM
- TGI (NCI/ADR-RES; NCl/ADR-RES, NCI five dose): 9.42E−6
- CC50 (ACHN): 4.22 µM
- Percent Growth (ACHN; ACHN, Log10 Concentration −4.0): −95%
- Percent Growth (ACHN; ACHN, Log10 Concentration −5.0): −91%
- Percent Growth (ACHN; ACHN, Log10 Concentration −6.0): 19%
- Percent Growth (ACHN; ACHN, Log10 Concentration −7.0): 55%
- Percent Growth (ACHN; ACHN, Log10 Concentration −8.0): 76%
- GI50 (ACHN; ACHN, NCI five dose): 0.342 µM
- TGI (ACHN; ACHN, NCI five dose): 1.49E−6
- CC50 (MALME-3M): 6.07 µM
- Percent Growth (MALME-3M; MALME-3M, Log10 Concentration −4.0): −82%
- Percent Growth (MALME-3M; MALME-3M, Log10 Concentration −5.0): −87%
- Percent Growth (MALME-3M; MALME-3M, Log10 Concentration −6.0): 82%
- Percent Growth (MALME-3M; MALME-3M, Log10 Concentration −7.0): 91%
- Percent Growth (MALME-3M; MALME-3M, Log10 Concentration −8.0): 91%
- GI50 (MALME-3M; MALME-3M, NCI five dose): 1.56 µM
- TGI (MALME-3M; MALME-3M, NCI five dose): 3.07E−6
- CC50 (NCI-H23): 7.72 µM
- Percent Growth (NCI-H23; NCI-H23, Log10 Concentration −4.0): −84%
- Percent Growth (NCI-H23; NCI-H23, Log10 Concentration −5.0): −67%
- Percent Growth (NCI-H23; NCI-H23, Log10 Concentration −6.0): 85%
- Percent Growth (NCI-H23; NCI-H23, Log10 Concentration −7.0): 96%
- Percent Growth (NCI-H23; NCI-H23, Log10 Concentration −8.0): 96%
- GI50 (NCI-H23; NCI-H23, NCI five dose): 1.69 µM
- TGI (NCI-H23; NCI-H23, NCI five dose): 3.62E−6
- CC50 (U251): 8.68 µM
- Percent Growth (U251; U251, Log10 Concentration −4.0): −74%
- Percent Growth (U251; U251, Log10 Concentration −5.0): −59%
- Percent Growth (U251; U251, Log10 Concentration −6.0): 92%
- Percent Growth (U251; U251, Log10 Concentration −7.0): 96%
- Percent Growth (U251; U251, Log10 Concentration −8.0): 98%
- GI50 (U251; U251, NCI five dose): 1.69 µM
- TGI (U251; U251, NCI five dose): 4.06E−6
- CC50 (LOX IMVI): 0.732 µM
- Percent Growth (LOX IMVI; LOX IMVI, Log10 Concentration −4.0): −81%
- Percent Growth (LOX IMVI; LOX IMVI, Log10 Concentration −5.0): −88%
- Percent Growth (LOX IMVI; LOX IMVI, Log10 Concentration −6.0): −72%
- Percent Growth (LOX IMVI; LOX IMVI, Log10 Concentration −7.0): 93%
- Percent Growth (LOX IMVI; LOX IMVI, Log10 Concentration −8.0): 93%
- GI50 (LOX IMVI; LOX IMVI, NCI five dose): 0.182 µM
- TGI (LOX IMVI; LOX IMVI, NCI five dose): 3.65E−7
- CC50 (NCI-H322M): 6.47 µM
- Percent Growth (NCI-H322M; NCI-H322M, Log10 Concentration −4.0): −89%
- Percent Growth (NCI-H322M; NCI-H322M, Log10 Concentration −5.0): −82%
- Percent Growth (NCI-H322M; NCI-H322M, Log10 Concentration −6.0): 88%
- Percent Growth (NCI-H322M; NCI-H322M, Log10 Concentration −7.0): 95%
- Percent Growth (NCI-H322M; NCI-H322M, Log10 Concentration −8.0): 81%
- GI50 (NCI-H322M; NCI-H322M, NCI five dose): 1.68 µM
- TGI (NCI-H322M; NCI-H322M, NCI five dose): 3.29E−6
- CC50 (OVCAR-4): 8.43 µM
- Percent Growth (OVCAR-4; OVCAR-4, Log10 Concentration −4.0): −84%
- Percent Growth (OVCAR-4; OVCAR-4, Log10 Concentration −5.0): −58%
- Percent Growth (OVCAR-4; OVCAR-4, Log10 Concentration −6.0): 48%
- Percent Growth (OVCAR-4; OVCAR-4, Log10 Concentration −7.0): 88%
- Percent Growth (OVCAR-4; OVCAR-4, Log10 Concentration −8.0): 4%
- TGI (OVCAR-4; OVCAR-4, NCI five dose): 2.85E−6
- CC50 (SF-539): 6.53 µM
- Percent Growth (SF-539; SF-539, Log10 Concentration −4.0): −91%
- Percent Growth (SF-539; SF-539, Log10 Concentration −5.0): −91%
- Percent Growth (SF-539; SF-539, Log10 Concentration −6.0): 70%
- Percent Growth (SF-539; SF-539, Log10 Concentration −7.0): 93%
- Percent Growth (SF-539; SF-539, Log10 Concentration −8.0): 90%
- GI50 (SF-539; SF-539, NCI five dose): 1.32 µM
- TGI (SF-539; SF-539, NCI five dose): 2.71E−4
- CC50 (SK-MEL-2): 7.83 µM
- Percent Growth (SK-MEL-2; SK-MEL-2, Log10 Concentration −4.0): −88%
- Percent Growth (SK-MEL-2; SK-MEL-2, Log10 Concentration −5.0): −67%
- Percent Growth (SK-MEL-2; SK-MEL-2, Log10 Concentration −6.0): 96%
- Percent Growth (SK-MEL-2; SK-MEL-2, Log10 Concentration −7.0): 113%
- Percent Growth (SK-MEL-2; SK-MEL-2, Log10 Concentration −8.0): 103%
- GI50 (SK-MEL-2; SK-MEL-2, NCI five dose): 1.92 µM
- TGI (SK-MEL-2; SK-MEL-2, NCI five dose): 3.88E−6
- CC50 (NCI-H226): 7.01 µM
- Percent Growth (NCI-H226; NCI-H226, Log10 Concentration −4.0): −71%
- Percent Growth (NCI-H226; NCI-H226, Log10 Concentration −5.0): −73%
- Percent Growth (NCI-H226; NCI-H226, Log10 Concentration −6.0): 74%
- Percent Growth (NCI-H226; NCI-H226, Log10 Concentration −7.0): 88%
- Percent Growth (NCI-H226; NCI-H226, Log10 Concentration −8.0): 92%
- GI50 (NCI-H226; NCI-H226, NCI five dose): 1.47 µM
- TGI (NCI-H226; NCI-H226, NCI five dose): 3.21E−6
